According to EP0386044B1, “HYPOGLYCAEMIC PEPTIDES” (MONASH UNIVERSITY, priority 1987, dated 1997):
Where no end group is shown, it is not given here. [ ]: non-standard residue; d: D form.

Experiments:
mice = experiment: In vivo testing for insulin-potentiating activity on untrained and trained mice; conditions: untrained female mice and untrained or trained male mice, 2.3 or 2.4 mg/kg peptide in 0.2 ml saline, insulin injected at t0; Figures 12 and 13
Procedure: The dotted lines represent control animals (injected with 0.2 ml of saline) in each case. The unbroken lines represent test animals (injected with 2.4 mg/Kg of peptide in 0.2 ml of saline). Insulin was injected at to. • Figure 13 represents in vivo testing of peptides for insulin-potentiating activity on "untrained" and "trained" male mice. The dotted line represents the mean fall in blood glucose for control animals (injected with 0.2 ml of saline). The unbroken line represents the mean fall in blood glucose for test animals, injected with 2.3 mg/kg of peptide in 0.2 ml of saline, except for (a), in which the dose was 2.4 mg/kg. • (a) Pep 6-13 (Gln^11Asp^12), "untrained" • (b) Pep 6-13 (Gln^11Asp^12), "trained" • (c) Pep 6-13 (Asn^11Asp^12), "trained" • (d) Pep 6-13 (Asp^12), "trained" Insulin was injected at to.
The dose of Pep (6-13) was 200 µg/Kg body weight. Similarly, various forms of the peptide according to the invention in its β imide form potentiate the hypoglycaemic effect of insulin on "untrained" male and female mice. The effect on trained male mice trained to feed on schedule as described above was less striking, but still significant in some cases.

[1] = tested on: cultured muscle cells (L6 rat skeletal muscle cell line); experiment: Cultured cell assay for stimulation of glucose uptake; assay type: cell-based; conditions: peptide 10µg/ml
Excerpt: In these assays collagenase-dispersed rat adipocytes, cultured muscle cells (L6 rat skeletal muscle cell line) and hemidiaphragm preparations were employed.
The effect of the β imide form peptides on glucose metabolism is further shown by their ability to stimulate glucose uptake and glycogen synthesis by cultured muscle cells and isolated rat hemidiaphragms.

rats = experiment: Decrease in blood glucose level in rats following intravenous injection of peptides; assay type: in vivo; conditions: for hypoglycaemic effect (change in blood glucose level), in words: injection of peptide, Table 2 and Figure 9; for Decrease in blood from basal / Difference from control mean: intravenous injection, peptide 0.5 µmol/100g; for Decrease in blood from basal: change of blood glucose from basal level (4.0 - 4.4 mmol glucose/l) at time 0, control 1.05; for Difference from control mean: difference of blood glucose decrease from control mean (1.05)
Excerpt: Values are changes (means ± SEM) of blood glucose from the basal level (4.0 - 4.4 mmol glucose/l) at time 0. Differences between the control and test groups were statistically evaluated according to Student's t-test. N.S. indicates 2P > 0.05.
Similar results are illustrated graphically in Figure 9.

| Substance | hypoglycaemic effect (change in blood glucose level), in words (rats) | Decrease in blood from basal (rats) | Difference from control mean (rats) | further results |
| --- | --- | --- | --- | --- |
| L-α-Asp at position 11 in hGH[6-13]: inactive control peptide, hGH[6-13] with L-α-Asp at position 11 and Asp at 12 (LSRLFDDA; UniProt P01241 32-39, looked up, variant N12D) | – | – | – | insulin-potentiating activity (mice): inactive |
| LSRL[dF]DNA [Pep P057] | – | – | – | Rate of Increase from Basal [1]: 2.0 µmol glucose/hour |
| Pep (6-12): synthetic peptide corresponding to residues 6-12 of human growth hormone, α form (LSRLFDN; UniProt P01241 32-38, looked up, fragment) | active only in the β imide form | 1.00 | -0.05 | – |
| Pep (6-13) Ala^11 α form: variant Ala^11 of Pep (6-13), α form (LSRLFANA; UniProt P01241 32-39, looked up, variant D11A) | inactive | – | – | – |
| Pep (6-13) Gly^10 α form: variant Gly^10 of Pep (6-13), α form (LSRLGDNA; UniProt P01241 32-39, looked up, variant F10G) | inactive | – | – | – |
| Pep (6-13) Gly^10Pro^11 α form: variant Gly^10Pro^11 of Pep (6-13), α form (LSRLGPNA; UniProt P01241 32-39, looked up, variant F10G D11P) | inactive | – | – | – |
| Pep (6-13) Pro^11 α form: variant Pro^11 of Pep (6-13), α form (LSRLFPNA; UniProt P01241 32-39, looked up, variant D11P) | inactive | – | – | – |
| Pep (6-13) Tyr^10 α form: variant Tyr^10 of Pep (6-13), α form (LSRLYDNA; UniProt P01241 32-39, looked up, variant F10Y) | inactive | – | – | – |
| Pep (6-15): synthetic peptide corresponding to residues 6-15 of human growth hormone, α form (LSRLFDNAML; UniProt P01241 32-41, looked up, fragment) | active only in the β imide form | 1.26 | 0.21 | – |
| Pep (9-13): synthetic peptide corresponding to residues 9-13 of human growth hormone, α form (LFDNA; UniProt P01241 35-39, looked up, fragment) | neither the α form nor the β imide form was active | 1.12 | 0.07 | – |
